# From US20080292584A1 (priority 2005, published 2008)
# Where “and” joins values, the source holds several entries; their conditions need not be identical. Equal entries are not always repeated. Where two headings read alike, the source gives them in different places.
# What was measured:
# [1] = tested on: CYP2B6; experiment: Induction/inhibition of CYP2B6 activity in cryopreserved human hepatocytes (S-mephenytoin); conditions: human; for Nirvanol formation Adjusted Mean ± SD: 48 h
# Excerpt: Hepatocytes from three human donors were obtained from a cryopreserved hepatocyte bank (In Vitro Technologies, Inc., USA). After thawing, viable hepatocytes were transferred to collagen-coated 48-well plates for attachment in plating medium (DMEM stock (Dulbecco's modified Eagle's medium, supplemented with bovine serum albumin, fructose, N-(2-hydroxyethyl)piperazine-N′-(2-ethanesulfonate) (HEPES), and sodium bicarbonate), supplemented with antibiotics, bovine serum, hydrocortisone, insulin and minimum essential medium (MEM) nonessential amino acids). After attachment to the collagen matrix, plating medium was replaced with sandwich medium (plating medium supplemented with VITROGEN) and incubated until use.
# The supplemented KHB was replaced with 150 μL supplemented KHB containing the appropriate isoform-selective substrate and incubated for 4 hrs prior to termination by adding 150 μL ice-cold methanol, except for the CYP2C8 incubations which were terminated by adding 150 μL acetonitrile.
# All substrates were dissolved in acetonitrile.
# Replicate trials and controls were performed. […] Additionally, reference control samples were included to evaluate inducibility of CYP2B6, CYP2C9, and CYP2C19 in the test system.
# Mean specific activity values with associated p-values≦0.05 were deemed to be statistically significant.
# [2] = biological target: CYP2C19 (Homo sapiens, UniProt P33261); experiment: Metabolism of metaxalone by expressed recombinant human CYP2C19 (Example 1); conditions: for Metaxalone Present Adjusted Individual / Metaxalone Present Adjusted Mean ± SD / Metaxalone Present Raw / Percent of Metabolic Negative Control Individual / Percent of Metabolic Negative Control Mean ± SD: 36 min;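 on all read-outs here: microsomes with expressed CYP2C19 (10 pmol P450) in Tris buffer with 1% methanol, reaction started by an NADPH regenerating system after 5 min preincubation, 0.5 mL volume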
# CYP2C19, sequence (P33261 whole entry): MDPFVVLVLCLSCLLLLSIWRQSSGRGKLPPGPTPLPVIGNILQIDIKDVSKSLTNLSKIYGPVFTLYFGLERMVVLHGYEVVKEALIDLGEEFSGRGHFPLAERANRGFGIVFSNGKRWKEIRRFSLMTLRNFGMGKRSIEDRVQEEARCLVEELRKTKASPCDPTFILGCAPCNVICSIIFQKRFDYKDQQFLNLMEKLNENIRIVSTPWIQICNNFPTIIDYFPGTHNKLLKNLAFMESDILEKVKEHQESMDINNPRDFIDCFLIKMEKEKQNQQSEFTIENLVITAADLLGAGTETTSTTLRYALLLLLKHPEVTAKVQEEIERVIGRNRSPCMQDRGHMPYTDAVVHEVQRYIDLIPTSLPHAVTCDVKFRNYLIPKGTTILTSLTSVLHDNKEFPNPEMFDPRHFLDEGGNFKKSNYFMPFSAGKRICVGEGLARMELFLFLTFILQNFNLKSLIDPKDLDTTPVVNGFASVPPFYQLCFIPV
# Experimental: Commercially available microsomes from baculovirus-infected insect cells containing singly-expressed recombinant wild-type (*1 allele) human CYP enzymes and cDNA-expressed human cytochrome p450 oxidoreductase [BD SUPERSOMES Enzymes; BD Biosciences Discovery Labware (Woburn, Mass.)] were used.
# After a 5-minute pre-incubation, an NADPH regenerating system (NRS) was added to the incubation mixtures to initiate reactions, with a final incubation volume of 0.5 mL. Incubations were continued for 30 minutes, and then terminated, except for those for CYP2C19, which were incubated for 36 minutes prior to termination.
# Matrix controls were performed to determine the background signal from the matrix components (microsomes (10 pmol p450), 01N Tris buffer, NRS, and 1% methanol). […] After a 5-minute pre-incubation, 2% sodium bicarbonate solution was added to the incubation mixtures. Incubation was for 30 minutes at a final volume of 0.5 mL. Matrix and metabolic negative controls were terminated by adding an equal volume of methanol. […] Analysis of samples was subsequent to storage at −70° C.
# [3] = biological target: CYP2D6 (Homo sapiens, UniProt P10635); conditions: both, pH 7.4; for Mean Conc.: 60 min; for % Turnover Mean: microsomes, 1 h
# CYP2D6, sequence (P10635 whole entry): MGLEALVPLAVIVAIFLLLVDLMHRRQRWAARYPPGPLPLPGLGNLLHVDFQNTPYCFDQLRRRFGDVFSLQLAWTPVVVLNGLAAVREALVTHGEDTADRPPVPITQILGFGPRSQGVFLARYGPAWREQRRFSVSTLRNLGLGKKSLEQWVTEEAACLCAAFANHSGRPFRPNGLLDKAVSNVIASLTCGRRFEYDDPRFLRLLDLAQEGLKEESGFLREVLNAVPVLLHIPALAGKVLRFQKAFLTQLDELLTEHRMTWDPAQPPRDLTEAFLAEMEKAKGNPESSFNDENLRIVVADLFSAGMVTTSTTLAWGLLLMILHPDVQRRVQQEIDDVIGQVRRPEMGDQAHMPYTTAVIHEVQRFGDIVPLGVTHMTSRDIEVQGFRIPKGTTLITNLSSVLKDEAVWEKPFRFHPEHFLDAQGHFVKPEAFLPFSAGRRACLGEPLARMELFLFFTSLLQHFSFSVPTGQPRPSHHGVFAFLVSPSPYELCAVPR
# Experimental: Human liver microsomes pooled from 15 individuals (male and female) (Pool HMMC-PL020; CellzDirect, Inc., In Vitro Products and Services Division) were used in some experiments of this study.
# % Turnover=100−{[TA(final)]/[mean of TA(0 min)]}×100,
# % Inhibition of Turnover=100{1−([TA(0 min)]−[TA(final-inhibitor)])/([TA(0 min)]−[TA(final-no inhibitor)])}.
# The inhibitors or vehicle control were incubated with the pooled human liver microsomes (1 mg/mL) and NADPH (1 mM) in 0.1 M phosphate buffer, pH 7.4. […] Incubations were conducted in triplicate and terminated by addition of organic solvent. Samples were extracted and analyzed by LC-MS/MS as described above.
# [4] = Metaxalone turnover in pooled human liver microsomes without inhibitor (LC-MS/MS); conditions: for % Turnover Mean / Mean Conc. / % Turnover / Conc. / Mean metaxalone disappearance: 1 mg/mL microsomal protein; for % Turnover Mean / Mean Conc. / % Turnover / Conc.: 60 min, no inhibitor; for % Turnover / Conc.: single replicates
# Experimental: Stocks were diluted daily in the appropriate buffers such that the final organic solvent concentration was <1%.
# The reactions, in 0.1 M phosphate buffer, pH 7.4, were initiated by addition of 1 mM NADPH. Negative controls (no NADPH and heat-treated microsomes) were included to account for any non-enzymatic or non-NADPH dependent reactions. The reactions were terminated at the appropriate time points by addition of 1 volume (relative to total reaction volume) of methanol. The samples were centrifuged at approximately 3000 rpm and the clear supernatant was transferred to a clean tube and analyzed by the LC-MS/MS method described above.
# [5] = biological target: T1, CYP2C8 (Homo sapiens, UniProt P10632); experiment: Inhibition of CYP2C8 activity in pooled human liver microsomes (paclitaxel 5 μM to 6-hydroxy paclitaxel); format: in vitro ADME
# T1 sequence (P10632 1-490): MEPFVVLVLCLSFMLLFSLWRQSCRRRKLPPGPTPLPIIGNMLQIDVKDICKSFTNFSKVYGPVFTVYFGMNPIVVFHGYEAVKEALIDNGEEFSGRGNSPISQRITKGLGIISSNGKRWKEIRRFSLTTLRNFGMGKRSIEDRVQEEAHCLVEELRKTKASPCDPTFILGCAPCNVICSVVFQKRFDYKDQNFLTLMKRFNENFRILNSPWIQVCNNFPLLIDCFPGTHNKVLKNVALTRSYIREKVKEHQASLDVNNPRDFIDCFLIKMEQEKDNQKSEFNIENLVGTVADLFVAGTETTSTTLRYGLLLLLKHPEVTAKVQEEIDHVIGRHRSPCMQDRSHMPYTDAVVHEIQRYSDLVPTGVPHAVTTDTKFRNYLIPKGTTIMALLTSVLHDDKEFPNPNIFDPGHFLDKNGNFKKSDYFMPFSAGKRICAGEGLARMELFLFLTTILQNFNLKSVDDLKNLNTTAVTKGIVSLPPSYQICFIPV
# Experimental: (§1) All other incubations were for 30 minutes.
# (§2) Four replicates were performed.
# (§3) Two replicates were performed.
# [6] = biological target: CYP2E1 (Homo sapiens, UniProt P05181); experiment: Inhibition of CYP2E1 activity in pooled human liver microsomes (chlorzoxazone 50 μM to 6-hydroxy chlorzoxazone); format: in vitro ADME; parameters: host or cells: cryopreserved primary human hepatocytes from three donors
# CYP2E1, sequence (P05181 whole entry): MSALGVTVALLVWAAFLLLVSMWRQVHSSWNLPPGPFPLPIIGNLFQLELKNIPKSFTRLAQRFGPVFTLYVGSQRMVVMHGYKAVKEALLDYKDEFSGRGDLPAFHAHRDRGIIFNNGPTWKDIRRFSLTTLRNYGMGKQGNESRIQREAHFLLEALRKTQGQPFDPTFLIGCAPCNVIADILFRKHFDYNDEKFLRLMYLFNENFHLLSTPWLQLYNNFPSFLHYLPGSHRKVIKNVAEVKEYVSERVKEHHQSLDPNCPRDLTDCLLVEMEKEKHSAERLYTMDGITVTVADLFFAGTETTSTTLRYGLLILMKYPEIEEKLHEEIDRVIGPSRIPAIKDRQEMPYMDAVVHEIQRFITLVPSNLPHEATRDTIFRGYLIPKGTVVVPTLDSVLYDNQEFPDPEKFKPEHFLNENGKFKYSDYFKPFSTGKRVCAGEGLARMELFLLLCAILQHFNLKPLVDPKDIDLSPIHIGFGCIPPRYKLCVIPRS
# Experimental: as §1, §2, §3
compound,measurement,setting,value
"Cc1cc(C)cc(OCC2CNC(=O)O2)c1 (stereo not drawn) [metaxalone, 5-[(3,5-dimethylphenoxy)methyl]-2-oxazolidinone]",Inducer/Inhibitor,[1],0
same,Nirvanol formation Adjusted Mean ± SD,[1]; 0.4 μM,0.0340 ± 0.000883 µM
same,Nirvanol formation Adjusted Mean ± SD,[1]; 4 μM,0.0305 ± 0.00272 µM
same,mean disappearance of metaxalone,[2]; 0.5 μM metaxalone,6.6%
same,Metaxalone Present Adjusted Individual,[2]; metaxalone 0.5 μM,0.335 µM and 0.344 µM and 0.356 µM
same,Metaxalone Present Adjusted Mean ± SD,[2]; metaxalone 0.5 μM,0.345 ± 0.0104 µM
same,Metaxalone Present Raw,[2]; metaxalone 0.5 μM,0.1677 µM and 0.1718 µM and 0.1781 µM
same,Percent of Metabolic Negative Control Individual,[2]; metaxalone 0.5 μM,90.8% and 93.0% and 96.4%
same,Percent of Metabolic Negative Control Mean ± SD,[2]; metaxalone 0.5 μM,93.4 ± 2.82%
same,Metaxalone Present Adjusted Individual,[2]; metaxalone 2.5 μM,1.34 μM (2×) and 1.35 μM
same,Metaxalone Present Adjusted Mean ± SD,[2]; metaxalone 2.5 μM,1.34 ± 0.00561 µM
same,Metaxalone Present Raw,[2]; metaxalone 2.5 μM,0.6722 µM and 0.6725 µM and 0.6675 µM
same,Percent of Metabolic Negative Control Individual,[2]; metaxalone 2.5 μM,96.7% (2×) and 96.0%
same,Percent of Metabolic Negative Control Mean ± SD,[2]; metaxalone 2.5 μM,96.5 ± 0.404%
same,Metaxalone Present Adjusted Individual,[2]; metaxalone 25 μM,18.7 μM (2×) and 18.5 μM
same,Metaxalone Present Adjusted Mean ± SD,[2]; metaxalone 25 μM,18.6 ± 0.120 µM
same,Metaxalone Present Raw,[2]; metaxalone 25 μM,9.345 µM and 9.359 µM and 9.249 µM
same,Percent of Metabolic Negative Control Individual,[2]; metaxalone 25 μM,92.9% and 93.0% and 91.9%
same,Percent of Metabolic Negative Control Mean ± SD,[2]; metaxalone 25 μM,92.6 ± 0.597%
same,Mean Conc.,[3]; 0.75 μM,0.769 µM
same,Mean Conc.,[3]; 7.5 μM,7.66 µM
same,% Turnover Mean,[3]; 0.75 μM,0.376%
same,% Turnover Mean,[3]; 7.5 μM,10.0%
same,% Turnover Mean,[4]; 0.75 μM metaxalone,29.8%
same,Mean Conc.,[4]; 0.75 μM metaxalone,0.542 µM
same,% Turnover,[4]; 0.75 μM metaxalone,30.5% and 27.3% and 31.5%
same,Conc.,[4]; 0.75 μM metaxalone,0.536 µM and 0.561 µM and 0.529 µM
same,Mean metaxalone disappearance,"[4]; 0.75 μM metaxalone, 60 minutes",29.8±1.3%
same,% Turnover Mean,[4]; 7.5 μM metaxalone,24.6%
same,Mean Conc.,[4]; 7.5 μM metaxalone,6.42 µM
same,% Turnover,[4]; 7.5 μM metaxalone,24.8% and 23.9% and 25.1%
same,Conc.,[4]; 7.5 μM metaxalone,6.40 µM and 6.48 µM and 6.38 µM
same,Mean metaxalone disappearance,"[4]; 7.5 μM metaxalone, 60 minutes",24.6±0.3%
same,maximum turnover,"[4]; 60 minutes, 1 mg/mL protein, NADPH-dependent",38.0%
same,inhibition of CYP activity at a statistically significant level,[5]; 0.3-100 μM metaxalone,no tested concentration of metaxalone inhibited activity
same,Inhibitor,"[5]; CYP isozyme 2C8, summary of studies",0
same,Percent of VC,[5]; metaxalone 0.3 μM,92.7%
same,Specific Activity Individual,[5]; metaxalone 0.3 μM,19.3 pmol/min/mg protein and 15.2 pmol/min/mg protein and 16.1 pmol/min/mg protein
same,Specific Activity Mean ± SD,[5]; metaxalone 0.3 μM,16.8 ± 2.18 pmol/min/mg protein
same,Percent of VC,[5]; metaxalone 1 μM,103%
same,Specific Activity Individual,[5]; metaxalone 1 μM,18.6 pmol/min/mg protein and 18.3 pmol/min/mg protein and 19.1 pmol/min/mg protein
same,Specific Activity Mean ± SD,[5]; metaxalone 1 μM,18.7 ± 0.406 pmol/min/mg protein
same,Percent of VC,[5]; metaxalone 3 μM,109%
same,Specific Activity Individual,[5]; metaxalone 3 μM,20.0 pmol/min/mg protein and 19.9 pmol/min/mg protein and 19.6 pmol/min/mg protein
same,Specific Activity Mean ± SD,[5]; metaxalone 3 μM,19.9 ± 0.232 pmol/min/mg protein
same,Percent of VC,[5]; metaxalone 30 μM,101%
same,Specific Activity Individual,[5]; metaxalone 30 μM,19.9 pmol/min/mg protein and 18.3 pmol/min/mg protein and 16.9 pmol/min/mg protein
same,Specific Activity Mean ± SD,[5]; metaxalone 30 μM,18.4 ± 1.52 pmol/min/mg protein
same,Percent of VC,[5]; metaxalone 100 μM,97.8%
same,Specific Activity Individual,[5]; metaxalone 100 μM,17.6 pmol/min/mg protein and 20.6 pmol/min/mg protein and 15.1 pmol/min/mg protein
same,Specific Activity Mean ± SD,[5]; metaxalone 100 μM,17.8 ± 2.76 pmol/min/mg protein
same,inhibition of CYP activity at a statistically significant level,"[6]; 0.3-100 μM metaxalone, p≦0.05",inhibited
same,Inhibitor,"[6]; CYP isozyme 2E1, summary of studies",+
same,"inhibition at 30 min, 100 μM","[6]; human, pooled human liver microsomes, probe chlorzoxazone 50 μM (to 6-hydroxy chlorzoxazone)",12.8%
same,Percent of VC,[6]; metaxalone 0.3 μM,83.3%
same,Specific Activity Individual,[6]; metaxalone 0.3 μM,196 pmol/min/mg protein and 187 pmol/min/mg protein and 185 pmol/min/mg protein
same,Specific Activity Mean ± SD,[6]; metaxalone 0.3 μM,189 ± 6.08 pmol/min/mg protein
same,Percent of VC,[6]; metaxalone 1 μM,84.0%
same,Specific Activity Individual,[6]; metaxalone 1 μM,194 pmol/min/mg protein (2×) and 185 pmol/min/mg protein
same,Specific Activity Mean ± SD,[6]; metaxalone 1 μM,191 ± 5.18 pmol/min/mg protein
same,Percent of VC,[6]; metaxalone 3 μM,88.6%
same,Specific Activity Individual,[6]; metaxalone 3 μM,203 pmol/min/mg protein (2×) and 198 pmol/min/mg protein
same,Specific Activity Mean ± SD,[6]; metaxalone 3 μM,201 ± 2.94 pmol/min/mg protein
same,Percent of VC,[6]; metaxalone 30 μM,86.1%
same,Specific Activity Individual,[6]; metaxalone 30 μM,191 pmol/min/mg protein and 199 pmol/min/mg protein and 197 pmol/min/mg protein
same,Specific Activity Mean ± SD,[6]; metaxalone 30 μM,196 ± 3.88 pmol/min/mg protein
same,Percent of VC,[6]; metaxalone 100 μM,87.2%
same,Specific Activity Individual,[6]; metaxalone 100 μM,200 pmol/min/mg protein and 202 pmol/min/mg protein and 193 pmol/min/mg protein
same,Specific Activity Mean ± SD,[6]; metaxalone 100 μM,198 ± 4.66 pmol/min/mg protein
